Results reported in patent publication US8952024B2, “Herbicidal pyrimidone derivatives” (E I du Pont de Nemours and Company, priority 2009, dated 2015).
Read-outs that look alike come from different tables or passages of the source.

How the values were obtained:
Type in all cases: in vivo
[1] = tested on: pigweed (Amaranthus retroflexus); experiment: Test B pre-/postemergence plant response; conditions: Postemergence
How it was run: (§1)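 Seeds were sown in loam soil/sand blend and treated preemergence with compound in non-phytotoxic solvent mixture containing surfactant; postemergence sprays, same formulation, went onto plants 2 to 18 cm (1- to 4-leaf stage) in peat-based planting medium. Greenhouse 13 to 15 days, then visual rating versus untreated controls, 0 (no effect) to 100 (complete control).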

[2] = tested on: wild oat (Avena fatua); experiment: Test B pre-/postemergence plant response; conditions: Postemergence
How it was run: as §1

[3] = tested on: canarygrass (Phalaris minor); experiment: Test B postemergence plant response; conditions: Postemergence
Excerpt: (§2) At the same time, plants selected from these crop and weed species and also winter barley (Hordeum vulgare), canarygrass (Phalaris minor), chickweed (Stellaria media) and windgrass (Apera spica-venti) were planted in pots containing Redi-Earth® planting medium (Scotts Company, 14111 Scottslawn Road, Marysville, Ohio 43041) comprising spaghnum peat moss, vermiculite, wetting agent and starter nutrients and treated with postemergence applications of some of the test chemicals formulated in the same manner. Plants ranged in height from 2 to 18 cm (1- to 4-leaf stage) for postemergence treatments.
(§3) Treated plants and controls were maintained in a greenhouse for 13 to 15 days, after which time all treated plants were visually evaluated and compared to controls. Plant response ratings, summarized in Table B, are based on a scale of 0 to 100 where 0 is no effect and 100 is complete control. A dash (-) response means no test result.

[4] = tested on: chickweed (Stellaria media); experiment: Test B postemergence plant response; conditions: Postemergence
Excerpt: as §2, §3

[5] = tested on: windgrass (Apera spica-venti); experiment: Test B postemergence plant response; conditions: Postemergence
Excerpt: as §2, §3

[6] = tested on: winter barley (Hordeum vulgare); experiment: Test B postemergence plant response; conditions: for Plant response rating, Barley: Postemergence
Excerpt: as §2, §3

[7] = tested on: barnyardgrass (Echinochloa crus-galli); experiment: Test B flooded paddy test; conditions: for Plant response rating, Barnyardgrass / pest or weed control at 31 g/ha / pest or weed control at 62 g/ha / pest or weed control at 125 g/ha: Flood (flooded paddy test), 13 to 15 days; for pest or weed control at 250 g/ha / pest or weed control at 31 g/ha / pest or weed control at 62 g/ha / pest or weed control at 125 g/ha: Echinochloa crus-galli, 360 h; for pest or weed control at 250 g/ha: read-out: Plant response rating, Flood, Barnyardgrass; for pest or weed control at 31 g/ha / pest or weed control at 62 g/ha / pest or weed control at 125 g/ha: read-out: Plant response rating, Barnyardgrass
How it was run: (§4)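 Flooded-pot test: water raised to 3 cm above soil when treating, compound put in the water, level unchanged thereafter. Plants were at 2 leaves. Readout after 13 to 15 days, visual, relative to controls; 0 signifies no effect and 100 complete control.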

[8] = tested on: ducksalad (Heteranthera limosa); experiment: Test B flooded paddy test; conditions: for Plant response rating, Ducksalad / pest or weed control at 31 g/ha / pest or weed control at 62 g/ha / pest or weed control at 125 g/ha: Flood (flooded paddy test), 13 to 15 days; for pest or weed control at 250 g/ha / pest or weed control at 31 g/ha / pest or weed control at 62 g/ha / pest or weed control at 125 g/ha: Heteranthera limosa, 360 h; for pest or weed control at 250 g/ha: read-out: Plant response rating, Flood, Ducksalad; for pest or weed control at 31 g/ha / pest or weed control at 62 g/ha / pest or weed control at 125 g/ha: read-out: Plant response rating, Ducksalad
How it was run: as §4

[9] = tested on: rice (Oryza sativa); experiment: Test B flooded paddy test; conditions: for Plant response rating, Rice / plant injury at 31 g/ha / plant injury at 62 g/ha / plant injury at 125 g/ha: Flood (flooded paddy test), 13 to 15 days; for plant injury at 250 g/ha / plant injury at 31 g/ha / plant injury at 62 g/ha / plant injury at 125 g/ha: Oryza sativa; for plant injury at 250 g/ha: read-out: Plant response rating, Flood, Rice; for plant injury at 31 g/ha / plant injury at 62 g/ha / plant injury at 125 g/ha: read-out: Plant response rating, Rice
How it was run: as §4

[10] = tested on: umbrella sedge (Cyperus difformis); experiment: Test B flooded paddy test; conditions: for Plant response rating, Sedge, Umbrella / pest or weed control at 31 g/ha / pest or weed control at 62 g/ha / pest or weed control at 125 g/ha: Flood (flooded paddy test), 13 to 15 days; for pest or weed control at 250 g/ha / pest or weed control at 31 g/ha / pest or weed control at 62 g/ha / pest or weed control at 125 g/ha: Cyperus difformis, 360 h; for pest or weed control at 250 g/ha: read-out: Plant response rating, Flood, Sedge, Umbrella; for pest or weed control at 31 g/ha / pest or weed control at 62 g/ha / pest or weed control at 125 g/ha: read-out: Plant response rating, Sedge, Umbrella
How it was run: as §4

[11] = 31 g ai/ha, 0 to 100 scale (0 no effect, 100 complete control)
[12] = 125 g ai/ha, scale 0 to 100 (0 no effect, 100 complete control)
[13] = 250 g ai/ha, flooded paddy test, visual rating on 0 to 100 scale (0 no effect, 100 complete control) after 13 to 15 days
[14] = 31 g ai/ha, scale of 0 to 100 where 0 is no effect and 100 is complete control
[15] = 62 g ai/ha, scale 0 to 100, 0 is no effect, 100 is complete control
[16] = 125 g ai/ha, scale 0 to 100, 0 is no effect, 100 is complete control
[17] = 62 g ai/ha, scale of 0 to 100 where 0 is no effect and 100 is complete control
[18] = Flood, 31 g ai/ha, scale 0 to 100 (0 no effect, 100 complete control)

`O=C1CCCC(O)=C1C(=O)c1cnc(-c2ccccc2)n(C2CC[S+]([O-])CC2)c1=O` (mixture of isomers) [Compound 169, 5-[(2-hydroxy-6-oxo-1-cyclohexen-1-yl)carbonyl]-2-phenyl-3-(trans/cis-tetrahydro-1-oxido-2H-thiopyran-4-yl)-4(3H)-pyrimidinone] was tested. Which “Plant response rating, Pigweed” value ([1]; 16 g ai/ha, 0 to 100 scale) did it give?
The value was 90.

What about the “Plant response rating, Pigweed” value [1, 11] of the same compound?
Its value is 100.

And the “Plant response rating, Pigweed” value [1, 12]?
The value was 100.

What about the “Plant response rating, Oat, Wild” value ([2]; 16 g ai/ha, 0 to 100 scale) of the same compound?
The value was 0.

What about the “Plant response rating, Oat, Wild” value [2, 11] of the same compound?
The value was 0.

What about the “Plant response rating, Oat, Wild” value [2, 12] of the same compound?
The value was 85.

And the “Plant response rating, Canarygrass” value ([3]; 16 g ai/ha, 0 to 100 scale)?
The value was 5.

What about the “Plant response rating, Canarygrass” value [3, 11] of the same compound?
Its value is 40.

And the “Plant response rating, Canarygrass” value [3, 12]?
The value was 80.

And the “Plant response rating, Chickweed” value ([4]; 16 g ai/ha, 0 to 100 scale)?
The value was 90.

And the “Plant response rating, Chickweed” value [4, 11]?
Its value is 100.

What about the “Plant response rating, Chickweed” value [4, 12] of the same compound?
The value was 100.

And the “Plant response rating, Windgrass” value ([5]; 16 g ai/ha, 0 to 100 scale)?
The value was 5.

And the “Plant response rating, Windgrass” value [5, 11]?
Its value is 15.

And the “Plant response rating, Windgrass” value [5, 12]?
The value was 55.

What about the “Plant response rating, Barley” value ([6]; 16 g ai/ha, 0 to 100 scale) of the same compound?
The value was 0.

And the “Barley plant response rating (0 to 100 scale)” value ([6]; 62 g ai/ha, postemergence, 0 is no effect, 100 is complete control, 13 to 15 days)?
The value was 0.

And the “Plant response rating, Barley” value [6, 11]?
The value was 0.

And the “Plant response rating, Barley” value [6, 12]?
Its value is 0.

Which results are given for `COc1cccc(-n2c(-c3ccccc3)ncc(C(=O)C3=C(O)CCCC3=O)c2=O)c1` [Compound 19]?
Plant response rating, Flood, Barnyardgrass [7, 13]: 15; Plant response rating, Barnyardgrass [7, 14]: 0; Plant response rating, Barnyardgrass [7, 15]: 0; Plant response rating, Barnyardgrass [7, 16]: 0; Plant response rating, Flood, Ducksalad [8, 13]: 90; Plant response rating, Ducksalad [8, 14]: 0; Plant response rating, Ducksalad [8, 15]: 75; Plant response rating, Ducksalad [8, 16]: 85; Plant response rating, Flood, Rice [9, 13]: 0; Plant response rating, Rice [9, 14]: 0; Plant response rating, Rice [9, 15]: 0; Plant response rating, Rice [9, 16]: 0; Plant response rating, Flood, Sedge, Umbrella [10, 13]: 95; Plant response rating, Sedge, Umbrella [10, 14]: 0; Plant response rating, Sedge, Umbrella [10, 15]: 70; Plant response rating, Sedge, Umbrella [10, 16]: 85

Which results are given for `CCn1ncc(C(=O)c2cnc(-c3ccccc3)n(Cc3ccccc3)c2=O)c1O` [Compound 20, 5-[(1-ethyl-5-hydroxy-1H-pyrazol-4-yl)carbonyl]-2-phenyl-3-(phenylmethyl)-4(3H)-pyrimidinone]?
pest or weed control at 250 g/ha [7, 13]: 0%; pest or weed control at 31 g/ha [7, 14]: 0%; pest or weed control at 62 g/ha [7, 15]: 0%; pest or weed control at 125 g/ha [7, 16]: 0%; pest or weed control at 250 g/ha [8, 13]: 75%; pest or weed control at 31 g/ha [8, 14]: 60%; pest or weed control at 62 g/ha [8, 15]: 60%; pest or weed control at 125 g/ha [8, 16]: 65%; plant injury at 250 g/ha [9, 13]: 15%; plant injury at 31 g/ha [9, 14]: 0%; plant injury at 62 g/ha [9, 15]: 0%; plant injury at 125 g/ha [9, 16]: 0%; pest or weed control at 250 g/ha [10, 13]: 60%; pest or weed control at 31 g/ha [10, 14]: 0%; pest or weed control at 62 g/ha [10, 15]: 40%; pest or weed control at 125 g/ha [10, 16]: 50%

Which results are given for `CCn1ncc(C(=O)c2cnc(-c3ccccc3)n(Cc3ccccc3)c2=O)c1OS(=O)(=O)c1ccc(C)cc1` [Compound 21, 5-[[1-ethyl-5-[[(4-methylphenyl)sulfonyl]oxy]-1H-pyrazol-4-yl]carbonyl]-2-phenyl-3-(phenylmethyl)-4(3H)-pyrimidinone]?
pest or weed control at 250 g/ha [7, 13]: 0%; pest or weed control at 31 g/ha [7, 14]: 0%; pest or weed control at 62 g/ha [7, 15]: 0%; pest or weed control at 125 g/ha [7, 16]: 0%; pest or weed control at 250 g/ha [8, 13]: 75%; pest or weed control at 31 g/ha [8, 14]: 60%; pest or weed control at 62 g/ha [8, 15]: 70%; pest or weed control at 125 g/ha [8, 16]: 70%; plant injury at 250 g/ha [9, 13]: 0%; plant injury at 31 g/ha [9, 14]: 0%; plant injury at 62 g/ha [9, 15]: 0%; plant injury at 125 g/ha [9, 16]: 0%; pest or weed control at 250 g/ha [10, 13]: 65%; pest or weed control at 31 g/ha [10, 14]: 40%; pest or weed control at 62 g/ha [10, 15]: 50%; pest or weed control at 125 g/ha [10, 16]: 60%

For `O=C(c1cnoc1C1CC1)c1cnc(-c2ccccc2)n(-c2ccccc2)c1=O` [Compound 223, 5-[(5-cyclopropyl-4-isoxazolyl)-carbonyl]-2,3-diphenyl-4(3H)-pyrimidinone], which pest or weed control at 250 g/ha [7, 13] is on record?
Its pest or weed control at 250 g/ha is 0%.

What about the pest or weed control at 62 g/ha [7, 17] of the same compound?
The pest or weed control at 62 g/ha was 0%.

And the pest or weed control at 125 g/ha [7, 16]?
Its pest or weed control at 125 g/ha is 0%.

What about the “Barnyardgrass plant response rating” value [7, 18] of the same compound?
The value was 0.

What about the “Ducksalad plant response rating” value [8, 18] of the same compound?
Its value is 0.

And the pest or weed control at 250 g/ha [8, 13]?
The pest or weed control at 250 g/ha was 0%.

And the pest or weed control at 62 g/ha [8, 17]?
The pest or weed control at 62 g/ha was 0%.

And the pest or weed control at 125 g/ha [8, 16]?
Its pest or weed control at 125 g/ha is 0%.

What about the “Rice plant response rating” value [9, 18] of the same compound?
The value was 0.

And the plant injury at 250 g/ha [9, 13]?
Its plant injury at 250 g/ha is 0%.

And the plant injury at 62 g/ha [9, 17]?
The plant injury at 62 g/ha was 0%.

What about the plant injury at 125 g/ha [9, 16] of the same compound?
Its plant injury at 125 g/ha is 0%.

And the pest or weed control at 250 g/ha [10, 13]?
The pest or weed control at 250 g/ha was 0%.

And the pest or weed control at 62 g/ha [10, 17]?
The pest or weed control at 62 g/ha was 0%.

What about the pest or weed control at 125 g/ha [10, 16] of the same compound?
Its pest or weed control at 125 g/ha is 0%.

And the “Sedge, Umbrella plant response rating” value [10, 18]?
The value was 0.
